Consider 17 molecules from PubChem BioAssay AID624167 (Sanford-Burnham Center for Chemical Genomics, 2012).

Common to all, as to assay: inhibition of PEG-3 promoter-driven reporter – cell-based, HeLa, luciferase, CREF/GAPDH counter-screen panel, dose response (AID 624167)
(In general: Counterscreens check selectivity or assay interference.)

Assay [1] concerns the target PEG-3 (UniProt Q6IN02). The note with it: HeLa PEG-Prom luciferase reporter, overnight, CREF/GAPDH counter-screens, mean of runs. In general terms: In a reporter assay the amount or activity of a reporter protein is the signal.
Assay [2] deals with Rat fibroblasts (CREF). The conditions noted are these: CREF/GAPDH counter-screens.
Assay [3] has as its system PEG-3. The conditions noted are these: HeLa PEG-Prom luciferase reporter, overnight, CREF/GAPDH counter-screens.
[4] abbreviates: run 1, dose range 1, individual replicate IC50 per panel.
The mark [5] stands for this setting: run 2, dose range 1, individual replicate IC50 per panel.

Sequence of PEG-3 (UniProt Q6IN02) (Q6IN02 whole entry, looked up): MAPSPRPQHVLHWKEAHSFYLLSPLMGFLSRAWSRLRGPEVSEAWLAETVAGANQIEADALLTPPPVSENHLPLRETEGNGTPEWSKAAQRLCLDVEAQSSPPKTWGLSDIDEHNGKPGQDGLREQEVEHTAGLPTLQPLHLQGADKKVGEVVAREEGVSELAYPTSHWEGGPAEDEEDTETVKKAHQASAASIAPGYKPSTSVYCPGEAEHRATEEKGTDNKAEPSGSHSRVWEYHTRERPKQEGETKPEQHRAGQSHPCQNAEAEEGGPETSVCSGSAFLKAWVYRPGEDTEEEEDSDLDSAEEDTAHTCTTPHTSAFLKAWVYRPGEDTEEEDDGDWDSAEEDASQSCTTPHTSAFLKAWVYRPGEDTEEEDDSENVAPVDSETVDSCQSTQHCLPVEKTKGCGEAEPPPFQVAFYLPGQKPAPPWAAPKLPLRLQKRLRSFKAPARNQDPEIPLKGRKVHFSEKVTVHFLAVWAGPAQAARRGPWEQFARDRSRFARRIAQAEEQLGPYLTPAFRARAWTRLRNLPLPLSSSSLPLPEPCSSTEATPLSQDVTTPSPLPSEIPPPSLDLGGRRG

Turning to `Fc1ccc(-c2nnc(NC3=NCCCCC3)o2)cc1`, the IC50 (as a rule, the midpoint of a concentration-inhibition curve) was 4.06 µM in assay [1]; 3.58 µM in assay [2] (mean of runs); 3.94 µM in assay [2] (setting [4]); 3.23 µM in assay [2] (setting [5]); 4.11 µM in assay [3] (setting [4]); 4 µM in assay [3] (setting [5]).
Turning to `CCOc1ccc(-c2ccc(SC)nn2)cc1`, the IC50 in assay [1] was 4.15 µM; in assay [2] (mean of runs), 0.473 µM; in assay [2] (setting [4]), 0.313 µM; in assay [2] (setting [5]), 0.632 µM; in assay [3] (setting [4]), 2.87 µM; in assay [3] (setting [5]), 5.43 µM.
For the molecule `CC(=O)Nc1ccc(NC(=O)c2nc(S(=O)(=O)Cc3cccc(C)c3)ncc2Cl)cc1`, the IC50 in assay [1] was 7.65 µM; in assay [2] (mean of runs), 6.67 µM; in assay [2] (setting [4]) it was 4.5 µM; in assay [2] (setting [5]), 8.85 µM; in assay [3] (setting [4]), 9.47 µM; in assay [3] (setting [5]) it was 5.84 µM.
On to `Cc1ccc2nc(-c3ccc(Br)cc3)cn2c1`, for which the IC50 was 6.1 µM in assay [1]; 7.81 µM in assay [2] (mean of runs); 2.93 µM in assay [2] (setting [4]); 12.7 µM in assay [2] (setting [5]); 3.13 µM in assay [3] (setting [4]); 9.07 µM in assay [3] (setting [5]).
As to `COc1ccc(C(=O)/C=C/Nc2ccccn2)cc1`, the IC50 is 2.6 µM in assay [1]; 3.61 µM in assay [2] (mean of runs); 3.45 µM in assay [2] (setting [4]); 3.77 µM in assay [2] (setting [5]); 2.02 µM in assay [3] (setting [4]); 3.18 µM in assay [3] (setting [5]).
Regarding `c1cc2c(cc1C1=NNC(=NC3CC3)SC1)OCCO2`, the IC50 in assay [1] is 0.764 µM; in assay [2] (mean of runs), 4.72 µM; in assay [2] (setting [4]) it was 1.39 µM; in assay [2] (setting [5]), 8.06 µM; in assay [3] (setting [4]), 0.657 µM; in assay [3] (setting [5]) it was 0.872 µM.
Consider `Cc1cc(C(=O)COC(=O)c2ccccc2O)c(C)n1Cc1cccs1`, for which the IC50 in assay [1] was 3.32 µM; in assay [2] (mean of runs), 1.36 µM; in assay [2] (setting [4]), 0.812 µM; in assay [2] (setting [5]), 1.9 µM; in assay [3] (setting [4]), 1.79 µM; in assay [3] (setting [5]), 4.86 µM.
Consider `CCOc1ccc(NC(=O)Nc2cccc(C(=O)O)c2)cc1`, for which the IC50 in assay [1] was 3.24 µM; in assay [2] (mean of runs), 4.09 µM; in assay [2] (setting [4]), 3.07 µM; in assay [2] (setting [5]) it was 5.1 µM; in assay [3] (setting [4]), 2.9 µM; in assay [3] (setting [5]), 3.58 µM.
As for `O=C(/C=C/Nc1ccccc1Br)c1ccccn1`, the IC50 in assay [1] is 1.1 µM; in assay [2] (mean of runs), 0.506 µM; in assay [2] (setting [4]), 0.414 µM; in assay [2] (setting [5]) it was 0.599 µM; in assay [3] (setting [4]) it was 0.895 µM; in assay [3] (setting [5]) it was 1.31 µM.
As to `COc1cccc(NC(=O)c2nc(S(C)(=O)=O)ncc2Cl)c1`, the IC50 is 7.74 µM in assay [1]; 9.29 µM in assay [2] (mean of runs); 10.2 µM in assay [2] (setting [4]); 8.36 µM in assay [2] (setting [5]); 8.84 µM in assay [3] (setting [4]); 6.64 µM in assay [3] (setting [5]).
`Cc1ccc(C(=O)Nc2cc3ccccc3oc2=O)cc1`: the IC50 in assay [1] is 0.665 µM; in assay [2] (mean of runs), 1.66 µM; in assay [2] (setting [4]) it was 0.409 µM; in assay [2] (setting [5]), 2.9 µM; in assay [3] (setting [4]), 0.327 µM; in assay [3] (setting [5]), 1 µM.
For the molecule `COc1ccc(-c2nc(-c3ccccn3)no2)cc1`, the IC50 in assay [1] was 0.552 µM; in assay [2] (mean of runs), 0.529 µM; in assay [2] (setting [4]) it was 0.472 µM; in assay [2] (setting [5]), 0.586 µM; in assay [3] (setting [4]), 0.765 µM; in assay [3] (setting [5]), 0.338 µM.
For the molecule `COC1=CC(=O)c2c(ccc3ncnc(N)c23)C1=O`, the IC50 in assay [1] is 1.01 µM; in assay [2] (mean of runs), 0.935 µM; in assay [2] (setting [4]), 0.875 µM; in assay [2] (setting [5]) it was 0.995 µM; in assay [3] (setting [4]), 1.48 µM; in assay [3] (setting [5]) it was 0.547 µM.
Turning to `Cc1ccc(C(=O)CN2C(=O)c3ccccc3S2(=O)=O)cc1`, the IC50 in assay [1] was 6.27 µM; in assay [2] (mean of runs), 8.72 µM; in assay [2] (setting [4]), 8.77 µM; in assay [2] (setting [5]) it was 8.68 µM; in assay [3] (setting [4]), 6.12 µM; in assay [3] (setting [5]) it was 6.43 µM.
With `Cc1cc(N2CCN(C)CC2)ccc1NC(=O)c1c2c(nc3ccccc13)CCN(Cc1ccccc1)C2`, the IC50 is 8.92 µM in assay [1]; 3.01 µM in assay [2] (mean of runs); 2.44 µM in assay [2] (setting [4]); 3.59 µM in assay [2] (setting [5]); 5.6 µM in assay [3] (setting [4]); 12.2 µM in assay [3] (setting [5]).
Regarding `CN(C)c1ccc(Nc2nc(N)c3ccccc3n2)cc1`, the concentration for half-maximal inhibition (IC50) in assay [1] was 3.66 µM; in assay [2] (mean of runs), 0.995 µM; in assay [2] (setting [4]), 0.869 µM; in assay [2] (setting [5]) it was 1.12 µM; in assay [3] (setting [4]), 2.51 µM; in assay [3] (setting [5]), 4.82 µM.
Take `Cc1ccc(C(=O)O/N=C(\N)c2ccccn2)cc1`: the IC50 in assay [1] is 6.63 µM; in assay [2] (mean of runs), 1.57 µM; in assay [2] (setting [4]), 1.63 µM; in assay [2] (setting [5]), 1.5 µM; in assay [3] (setting [4]) it was 10.3 µM; in assay [3] (setting [5]), 2.96 µM.
